Laboratory results taken from ChEMBL document CHEMBL1201862, “PubChem BioAssay data set” (2004).
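Step 1: Grow cells in 96-well plates. Step 2: Expose to compound for 48 hours at 5 concentrations. Step 3: Interpolate endpoints linearly; if unreached, use highest concentration. At the GI50, growth is halved.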 Active and inactive are the calls of the source. No stated cut-off is given here; in the data, active = GI50 up to about 1.1 µM and inactive = higher.

Tests used:
Assay in all cases: inhibition of tumour cell growth, NCI panel, 48 h
[1] = system: COLO 205
[2] = system: SF-539
[3] = system: OVCAR-5
[4] = system: UACC-257
[5] = system: A498
[6] = system: CCRF-CEM
[7] = system: SR
[8] = system: LOX IMVI
[9] = system: MOLT-4
[10] = system: HCC 2998
[11] = system: SNB-75
[12] = system: SNB-19
[13] = system: M14
[14] = system: SK-OV-3
[15] = system: OVCAR-3
[16] = system: HOP-92
[17] = system: DMS-273
[18] = system: HCT-116
[19] = system: LXFL 529
[20] = system: EKVX
[21] = system: HOP-62
[22] = system: K562
[23] = system: HOP-18
[24] = system: CAKI-1
[25] = system: NCI-H226
[26] = system: SK-MEL-5
[27] = system: U-251
[28] = system: ACHN
[29] = system: M19-MEL
[30] = system: A549
[31] = system: SK-MEL-28
[32] = system: KM12
[33] = system: IGROV-1
[34] = system: NCI-H460
[35] = system: RXF 393
[36] = system: SF-268
[37] = system: OVCAR-8
[38] = system: DMS-114
[39] = system: Malme-3M
[40] = system: HL-60
[41] = system: HCT-15
[42] = system: NCI-H522
[43] = system: OVCAR-4
[44] = system: SNB-78
[45] = system: HT-29
[46] = system: SF-295
[47] = system: UACC-62
[48] = system: UO-31
[49] = system: SK-MEL-2
[50] = system: KM-20L2
[51] = system: TK-10
[52] = system: XF498
[53] = system: 786-0
[54] = system: DLD-1
[55] = system: SN12C
[56] = system: NCI-H23
[57] = system: SW-620
[58] = system: RPMI-8226

Measured: GI50

CN1CCN=C1c1nnn(-c2ccc([N+](=O)[O-])cc2)c1-c1ccccc1
inactive: [1] > 100 µM | [2] > 100 µM | [3] > 100 µM | [4] > 100 µM | [5] > 100 µM | [6] 24.7 µM | [7] > 100 µM | [8] 94.6 µM | [9] > 100 µM | [10] > 100 µM | [11] > 100 µM | [12] > 100 µM | [13] > 100 µM | [14] > 100 µM | [15] > 100 µM | [16] 13.6 µM | [17] > 100 µM | [18] > 100 µM | [19] > 100 µM | [20] > 100 µM | [21] > 100 µM | [22] 33.7 µM | [23] > 100 µM | [24] > 100 µM | [25] > 100 µM | [26] > 100 µM | [27] 94.6 µM | [28] > 100 µM | [29] > 100 µM | [30] > 100 µM | [31] > 100 µM | [32] > 100 µM | [33] > 100 µM | [34] > 100 µM | [35] > 100 µM | [36] > 100 µM | [37] > 100 µM | [38] 89.3 µM | [39] > 100 µM | [40] 18.8 µM | [42] > 100 µM | [43] > 100 µM | [44] > 100 µM | [45] 64.9 µM | [46] > 100 µM | [47] > 100 µM | [48] 75.5 µM | [49] > 100 µM | [50] > 100 µM | [51] > 100 µM | [52] 89.3 µM | [53] > 100 µM | [54] 67 µM | [55] > 100 µM | [56] > 100 µM | [57] 26.5 µM
> 100 µM: [41]

N#CN=C(N(Cc1ccccc1)Cc1ccccc1)N(Cc1ccccc1)Cc1ccccc1
inactive: [1] 11.7 µM | [2] 46.7 µM | [3] 45.2 µM | [4] 8.47 µM | [5] 14.7 µM | [6] 5.73 µM | [8] 20.4 µM | [9] 2.74 µM | [10] 47 µM | [11] 95.7 µM | [12] 28.7 µM | [13] 15.3 µM | [14] 21.8 µM | [15] 10.9 µM | [18] 3.51 µM | [19] 3.89 µM | [20] 7.11 µM | [21] > 100 µM | [22] 4.36 µM | [23] > 100 µM | [24] 11.6 µM | [25] 32.5 µM | [28] 4.53 µM | [29] 25.5 µM | [30] 6.44 µM | [58] 3.88 µM | [32] 11.9 µM | [33] 3.48 µM | [34] 3.88 µM | [36] > 100 µM | [37] 6.7 µM | [38] 4.85 µM | [39] 36.7 µM | [40] 5.14 µM | [42] 4.69 µM | [44] > 100 µM | [45] 6.22 µM | [46] > 100 µM | [47] 6.32 µM | [48] 5.64 µM | [49] 12 µM | [50] 16.4 µM | [52] 12.5 µM | [54] 5.18 µM | [55] 23.4 µM | [57] 9.82 µM
6.37 µM: [41]

C#CCN(Cc1ccc2nc(-c3ccccc3)c(Cl)nc2c1)c1ccc(Cl)c(Cl)c1
inactive: [1] > 100 µM | [2] > 100 µM | [3] > 100 µM | [4] > 100 µM | [5] > 100 µM | [6] > 100 µM | [7] > 100 µM | [8] > 100 µM | [9] > 100 µM | [10] 33.5 µM | [11] > 100 µM | [12] > 100 µM | [13] > 100 µM | [14] > 100 µM | [15] 60 µM | [16] > 100 µM | [17] > 100 µM | [18] > 100 µM | [19] > 100 µM | [20] > 100 µM | [21] > 100 µM | [22] > 100 µM | [23] > 100 µM | [24] > 100 µM | [26] > 100 µM | [27] > 100 µM | [28] > 100 µM | [29] > 100 µM | [30] > 100 µM | [31] > 100 µM | [32] > 100 µM | [33] > 100 µM | [34] > 100 µM | [36] > 100 µM | [37] > 100 µM | [38] > 100 µM | [39] > 100 µM | [40] > 100 µM | [42] > 100 µM | [43] > 100 µM | [44] 38.1 µM | [45] > 100 µM | [46] > 100 µM | [47] > 100 µM | [48] > 100 µM | [49] > 100 µM | [50] > 100 µM | [51] > 100 µM | [52] > 100 µM | [53] > 100 µM | [54] > 100 µM | [55] > 100 µM | [56] > 100 µM | [57] > 100 µM
> 100 µM: [41]

COc1ccc2cc3c4cc(OC)c(OC)cc4ccn3c2c1
inactive: [1] > 100 µM | [2] > 100 µM | [3] > 100 µM | [4] > 100 µM | [5] > 100 µM | [6] > 100 µM | [7] > 100 µM | [8] > 100 µM | [9] > 100 µM | [10] > 100 µM | [12] > 100 µM | [14] > 100 µM | [16] > 100 µM | [17] > 100 µM | [19] > 100 µM | [20] > 100 µM | [21] > 100 µM | [22] > 100 µM | [23] > 100 µM | [24] > 100 µM | [25] > 100 µM | [26] > 100 µM | [27] > 100 µM | [28] > 100 µM | [29] > 100 µM | [30] > 100 µM | [31] > 100 µM | [32] > 100 µM | [33] > 100 µM | [34] > 100 µM | [35] > 100 µM | [36] > 100 µM | [37] > 100 µM | [38] > 100 µM | [39] > 100 µM | [40] > 100 µM | [42] > 100 µM | [43] > 100 µM | [44] > 100 µM | [45] > 100 µM | [46] > 100 µM | [47] > 100 µM | [48] > 100 µM | [49] > 100 µM | [51] > 100 µM | [52] > 100 µM | [53] > 100 µM | [54] > 100 µM | [55] > 100 µM | [56] > 100 µM | [57] > 100 µM

CN=S(=O)(C[C@]1(O)CC2OC1C1OC(C)(C)OC21)c1ccccc1 (stereo partly drawn)
inactive: [1] > 100 µM | [2] > 100 µM | [3] > 100 µM | [4] > 100 µM | [5] > 100 µM | [6] > 100 µM | [9] > 100 µM | [10] > 100 µM | [11] 83 µM | [12] > 100 µM | [13] > 100 µM | [14] > 100 µM | [15] > 100 µM | [16] > 100 µM | [17] > 100 µM | [18] > 100 µM | [19] > 100 µM | [20] > 100 µM | [21] > 100 µM | [22] > 100 µM | [24] > 100 µM | [25] > 100 µM | [26] > 100 µM | [27] > 100 µM | [28] > 100 µM | [29] > 100 µM | [30] > 100 µM | [58] > 100 µM | [31] > 100 µM | [32] > 100 µM | [33] > 100 µM | [34] > 100 µM | [35] > 100 µM | [36] > 100 µM | [37] > 100 µM | [38] > 100 µM | [39] > 100 µM | [40] > 100 µM | [42] > 100 µM | [43] > 100 µM | [44] > 100 µM | [45] > 100 µM | [46] > 100 µM | [47] > 100 µM | [49] > 100 µM | [50] > 100 µM | [51] > 100 µM | [52] > 100 µM | [53] > 100 µM | [55] > 100 µM | [56] > 100 µM | [57] > 100 µM
> 100 µM: [41]
